{"source": "ChEMBL document CHEMBL4011641", "about": "“Prodrugs of Pyrazolo[3,4-d]pyrimidines: From Library Synthesis to Evaluation as Potential Anticancer Agents in an Orthotopic Glioblastoma Model” (J Med Chem, 2017)", "key": {"[1]": {"test": "Antitumor activity against human U87 cells xenografted in nude immunodeficient CD1 mouse assessed as mean survival time at 50 mg/kg, po administered every other day (reference value: 30 day)", "assay_type": "functional, U-87MG ATCC"}, "Liver [2]": {"tested_on": "Liver", "test": "Prodrug conversion in BALB/C mouse liver assessed as N-(3-bromophenyl)-1-(2-chloro-2-phenylethyl)-6-(2-morpholinoethylthio)-1H-pyrazolo[3,4-d]pyrimidin-4-amine formation at 50 mg/kg, ip via bolus administration measured at 24 hrs post dose by UV/LC-MS", "assay_type": "ADME, organism-based", "details": "in vivo; call rule not given here"}, "[3]": {"test": "MRT in BALB/C mouse at 50 mg/kg, ip administered via bolus dose using DMSO formulation measured at 1 to 24 hrs post dose by UV/LC-MS analysis", "assay_type": "ADME, organism-based", "details": "in vivo"}, "physchem [4]": {"test": "physchem", "details": "aqueous", "description": "Aqueous solubility of compound at 1 mg after 24 hrs by UV/LC-MS analysis"}, "[5]": {"test": "Half life in BALB/C mouse at 50 mg/kg, ip administered via bolus dose using DMSO formulation measured at 1 to 24 hrs post dose by UV/LC-MS analysis", "assay_type": "ADME, organism-based", "details": "in vivo"}, "[6]": {"test": "Prodrug conversion in BALB/C mouse adipose tissue assessed as N-(3-bromophenyl)-1-(2-chloro-2-phenylethyl)-6-(2-morpholinoethylthio)-1H-pyrazolo[3,4-d]pyrimidin-4-amine formation at 50 mg/kg, ip via bolus administration measured at 24 hrs post dose by UV/LC-MS", "assay_type": "ADME, organism-based", "details": "in vivo"}, "[7]": {"test": "AUC (0 to 24 hrs) in BALB/C mouse at 50 mg/kg, ip administered via bolus dose using DMSO formulation measured at 1 to 24 hrs post dose by UV/LC-MS analysis", "assay_type": "ADME, organism-based", "parameters": "dose 50 mg/kg, time < 24 hr, route intraperitoneal", "details": "in vivo"}, "physchem [8]": {"test": "physchem", "details": "PAMPA", "description": "Apparent permeability at 500 uM after 5 hrs by Blood-Brain Barrier-based PAMPA"}, "[9]": {"test": "Metabolic stability in mouse liver microsomes assessed as unmetabolized compound remaining at 50 uM after 1 hr in presence of NADPH regenerating system by UV/LC-MS analysis", "assay_type": "ADME, microsome", "details": "read-out: Stability"}, "Plasma [10]": {"tested_on": "Plasma", "test": "Prodrug conversion in BALB/C mouse plasma assessed as N-(3-bromophenyl)-1-(2-chloro-2-phenylethyl)-6-(2-morpholinoethylthio)-1H-pyrazolo[3,4-d]pyrimidin-4-amine formation at 50 mg/kg, ip via bolus administration measured at 24 hrs post dose by UV/LC-MS", "assay_type": "ADME, organism-based", "details": "in vivo"}, "[11]": {"test": "Tmax in BALB/C mouse at 50 mg/kg, ip administered via bolus dose using DMSO formulation measured at 1 to 24 hrs post dose by UV/LC-MS analysis", "assay_type": "ADME, organism-based", "details": "in vivo"}, "Kidney [12]": {"tested_on": "Kidney", "test": "Drug uptake in BALB/C mouse kidney at 50 mg/kg, ip via bolus administration measured at 24 hrs post dose by UV/LC-MS", "assay_type": "ADME, organism-based", "details": "in vivo"}, "[13]": {"target": "Proto-oncogene tyrosine-protein kinase Src (Homo sapiens, UniProt P12931)", "sequence (P12931 2-536 limits assumed)": "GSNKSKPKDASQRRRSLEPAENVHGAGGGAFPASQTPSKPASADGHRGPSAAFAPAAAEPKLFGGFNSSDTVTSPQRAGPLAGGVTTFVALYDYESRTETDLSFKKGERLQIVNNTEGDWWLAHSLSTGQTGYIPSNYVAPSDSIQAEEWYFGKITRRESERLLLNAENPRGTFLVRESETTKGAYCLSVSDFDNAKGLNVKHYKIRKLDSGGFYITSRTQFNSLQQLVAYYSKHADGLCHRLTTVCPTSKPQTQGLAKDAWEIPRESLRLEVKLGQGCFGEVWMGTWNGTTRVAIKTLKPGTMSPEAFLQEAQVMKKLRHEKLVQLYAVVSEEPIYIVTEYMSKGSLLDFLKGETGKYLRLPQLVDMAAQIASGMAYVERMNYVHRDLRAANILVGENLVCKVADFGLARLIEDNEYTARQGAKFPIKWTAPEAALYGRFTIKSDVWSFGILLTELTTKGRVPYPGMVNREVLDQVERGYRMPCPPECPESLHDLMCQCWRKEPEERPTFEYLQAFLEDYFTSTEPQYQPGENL", "test": "biochemical", "description": "Inhibition of human wild type full length N-terminal GST/6His-tagged SRC (M1 to L536 residues) expressed in baculovirus infected Sf9 cells using src peptide as substrate after 5 mins in presence of [gamma-32P]ATP by scintillation counting method"}, "[14]": {"test": "Half life in mouse plasma by UV/LC-MS analysis", "assay_type": "ADME, cell-free"}, "Liver carboxylesterase 1": {"target": "T1, Liver carboxylesterase 1 (Homo sapiens, UniProt P23141)", "T1 sequence (P23141 whole entry)": "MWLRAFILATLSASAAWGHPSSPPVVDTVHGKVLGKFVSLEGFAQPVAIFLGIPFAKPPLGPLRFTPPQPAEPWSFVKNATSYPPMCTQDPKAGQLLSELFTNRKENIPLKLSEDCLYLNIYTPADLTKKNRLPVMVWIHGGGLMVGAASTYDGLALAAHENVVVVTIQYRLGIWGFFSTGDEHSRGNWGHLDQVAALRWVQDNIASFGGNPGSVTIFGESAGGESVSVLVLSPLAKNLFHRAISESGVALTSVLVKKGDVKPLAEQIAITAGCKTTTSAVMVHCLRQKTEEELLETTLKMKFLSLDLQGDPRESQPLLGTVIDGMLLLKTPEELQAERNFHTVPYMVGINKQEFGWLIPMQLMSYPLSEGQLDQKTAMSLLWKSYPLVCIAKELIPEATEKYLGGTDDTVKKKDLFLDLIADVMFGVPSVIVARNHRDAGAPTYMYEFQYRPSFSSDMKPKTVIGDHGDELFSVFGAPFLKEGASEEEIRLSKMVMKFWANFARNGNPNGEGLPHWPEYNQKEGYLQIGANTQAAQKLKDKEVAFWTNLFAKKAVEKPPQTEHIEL", "test": "Drug metabolism assessed as human CES1-mediated compound hydrolysis at 10 to 100 uM after 1 hr by UV/HPLC-MS analysis", "assay_type": "ADME"}, "[15]": {"test": "Drug uptake in cytoplasm of human U87 cells at 20 uM after 2 hrs by UV/LC-MS analysis", "assay_type": "ADME"}, "[16]": {"test": "Cmax in BALB/C mouse at 50 mg/kg, ip administered via bolus dose using DMSO formulation measured at 1 to 24 hrs post dose by UV/LC-MS analysis", "assay_type": "ADME, organism-based", "parameters": "dose 50 mg/kg, route intraperitoneal", "details": "in vivo"}, "Brain [17]": {"tested_on": "Brain", "test": "Prodrug conversion in BALB/C mouse brain assessed as N-(3-bromophenyl)-1-(2-chloro-2-phenylethyl)-6-(2-morpholinoethylthio)-1H-pyrazolo[3,4-d]pyrimidin-4-amine formation at 50 mg/kg, ip via bolus administration measured at 24 hrs post dose by UV/LC-MS", "assay_type": "ADME, organism-based", "details": "in vivo"}, "[18]": {"test": "AUC (0 to infinity) in BALB/C mouse at 50 mg/kg, ip administered via bolus dose using DMSO formulation measured at 1 to 24 hrs post dose by UV/LC-MS analysis", "assay_type": "ADME, organism-based", "parameters": "dose 50 mg/kg, time infinity, route intraperitoneal", "details": "in vivo"}, "[19]": {"test": "Drug uptake in cytoplasm of human U87 cells at 20 uM after 5 hrs by UV/LC-MS analysis", "assay_type": "ADME"}, "[20]": {"test": "Drug uptake in BALB/C mouse adipose tissue at 50 mg/kg, ip via bolus administration measured at 24 hrs post dose by UV/LC-MS", "assay_type": "ADME, organism-based", "details": "in vivo"}, "[21]": {"target": "Tyrosine-protein kinase ABL1 (Homo sapiens, UniProt P00519)", "sequence (P00519 whole entry)": "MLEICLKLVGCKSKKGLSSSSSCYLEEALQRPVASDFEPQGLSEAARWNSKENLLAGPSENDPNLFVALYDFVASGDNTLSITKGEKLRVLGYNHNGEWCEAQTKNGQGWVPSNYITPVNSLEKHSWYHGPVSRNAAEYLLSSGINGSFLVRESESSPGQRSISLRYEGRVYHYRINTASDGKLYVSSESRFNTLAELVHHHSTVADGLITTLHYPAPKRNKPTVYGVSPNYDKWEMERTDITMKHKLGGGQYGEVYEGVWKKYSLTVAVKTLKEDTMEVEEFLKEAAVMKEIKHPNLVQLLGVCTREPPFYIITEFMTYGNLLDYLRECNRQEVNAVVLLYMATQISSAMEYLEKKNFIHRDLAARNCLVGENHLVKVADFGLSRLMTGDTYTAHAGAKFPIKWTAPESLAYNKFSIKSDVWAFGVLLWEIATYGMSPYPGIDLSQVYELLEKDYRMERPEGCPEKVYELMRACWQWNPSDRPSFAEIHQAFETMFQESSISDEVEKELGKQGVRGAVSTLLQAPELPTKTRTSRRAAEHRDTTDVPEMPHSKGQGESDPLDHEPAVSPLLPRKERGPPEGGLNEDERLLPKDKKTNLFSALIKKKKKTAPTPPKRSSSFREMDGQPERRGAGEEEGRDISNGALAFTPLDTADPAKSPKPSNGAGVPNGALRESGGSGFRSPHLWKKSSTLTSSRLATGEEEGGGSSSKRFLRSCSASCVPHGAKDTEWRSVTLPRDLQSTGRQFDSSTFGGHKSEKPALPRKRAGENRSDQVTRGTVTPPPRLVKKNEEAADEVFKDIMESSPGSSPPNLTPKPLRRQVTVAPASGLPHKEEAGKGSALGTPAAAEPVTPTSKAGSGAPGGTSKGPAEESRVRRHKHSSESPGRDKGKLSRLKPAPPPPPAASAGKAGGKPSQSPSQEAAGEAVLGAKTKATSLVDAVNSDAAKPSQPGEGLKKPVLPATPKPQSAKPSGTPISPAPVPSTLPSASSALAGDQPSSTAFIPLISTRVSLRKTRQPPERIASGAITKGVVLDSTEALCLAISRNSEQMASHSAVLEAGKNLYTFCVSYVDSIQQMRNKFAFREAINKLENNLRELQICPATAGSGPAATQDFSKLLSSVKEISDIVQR", "description": "Inhibition of human wild type full length N-terminal GST/6His-tagged ABL (P118 to S535 residues) expressed in Sf9 cells using abltide as substrate after 5 mins in presence of [gamma-32P]ATP by scintillation counting"}, "cells [22]": {"test": "cells", "details": "Homo sapiens, U-87 MG, 48 h", "description": "Cytotoxicity against human U87 cells assessed as reduction in cell viability after 48 hrs by trypan blue assay"}, "physchem [23]": {"test": "physchem", "details": "PAMPA", "remark": "listed apart in the source", "description": "Apparent permeability at 500 uM after 5 hrs by Gastro-intestinal-based PAMPA"}, "[24]": {"test": "Prodrug activation in human U87 cells assessed as N-(3-bromophenyl)-1-(2-chloro-2-phenylethyl)-6-(2-morpholinoethylthio)-1H-pyrazolo[3,4-d]pyrimidin-4-amine formation at 20 uM up to 25 hrs by UV/LC-MS analysis", "assay_type": "cell-based", "details": "u-87mg atcc"}, "Kidney [25]": {"tested_on": "Kidney", "test": "Prodrug conversion in BALB/C mouse kidney assessed as N-(3-bromophenyl)-1-(2-chloro-2-phenylethyl)-6-(2-morpholinoethylthio)-1H-pyrazolo[3,4-d]pyrimidin-4-amine formation at 50 mg/kg, ip via bolus administration measured at 24 hrs post dose by UV/LC-MS", "assay_type": "ADME, organism-based", "details": "in vivo"}, "Brain [26]": {"tested_on": "Brain", "test": "Drug uptake in BALB/C mouse brain at 50 mg/kg, ip via bolus administration measured at 24 hrs post dose by UV/LC-MS analysis", "assay_type": "ADME, organism-based", "details": "in vivo"}, "cells [27]": {"test": "cells", "details": "Homo sapiens, U-87 MG, 24 h", "description": "Cytotoxicity against human U87 cells assessed as reduction in cell viability after 24 hrs by trypan blue assay"}, "Plasma [28]": {"tested_on": "Plasma", "test": "Plasma concentration in BALB/C mouse at 50 mg/kg, ip via bolus administration measured at 24 hrs post dose by UV/LC-MS relative to N-(3-bromophenyl)-1-(2-chloro-2-phenylethyl)-6-(2-morpholinoethylthio)-1H-pyrazolo[3,4-d]pyrimidin-4-amine", "assay_type": "ADME, organism-based", "details": "in vivo"}, "Liver [29]": {"tested_on": "Liver", "test": "Drug uptake in BALB/C mouse liver at 50 mg/kg, ip via bolus administration measured at 24 hrs post dose by UV/LC-MS", "assay_type": "ADME, organism-based", "details": "in vivo"}, "[30]": {"test": "Half life in methanol at 100 uM by UV/LC-MS analysis", "assay_type": "physicochemical"}, "[31]": {"test": "Metabolic stability in human liver microsomes assessed as parent compound remaining at 50 uM after 1 hr in presence of NADPH regenerating system by UV/LC-MS analysis", "assay_type": "ADME, microsome", "details": "read-out: Stability"}, "[32]": {"test": "Half life in PBS buffer at 100 uM at pH 7.4 by UV/LC-MS analysis", "assay_type": "physicochemical"}, "[33]": {"test": "Plasma concentration in BALB/C mouse at 50 mg/kg, ip via bolus administration measured at 24 hrs post dose by UV/LC-MS", "assay_type": "ADME, organism-based"}, "cells [34]": {"test": "cells", "details": "Homo sapiens, U-87 MG, 72 h", "description": "Cytotoxicity against human U87 cells assessed as reduction in cell viability after 72 hrs by trypan blue assay"}, "[35]": {"test": "Plasma clearance in BALB/C mouse at 50 mg/kg, ip administered via bolus dose using DMSO formulation measured at 1 to 24 hrs post dose by UV/LC-MS analysis", "assay_type": "ADME, organism-based"}}, "data": [{"smiles": "CN1CCN(CCOC(=O)N(c2cccc(Br)c2)c2nc(SCCN3CCOCC3)nc3c2cnn3CC(Cl)c2ccccc2)CC1", "note": "(stereo unspecified)", "values": [{"measurement": "MST", "setting": "[1]", "value": 49, "unit": "days"}, {"measurement": "Drug metabolism", "setting": "Liver [2]", "value": 3.6, "unit": "nmol/g"}, {"measurement": "MRT", "setting": "[3]", "value": 33.3, "unit": "h"}, {"measurement": "solubility at 24 h", "setting": "physchem [4]", "value": 8.7, "unit": "µg/mL"}, {"measurement": "half-life", "setting": "[5]", "value": 23.8, "unit": "h"}, {"measurement": "Drug metabolism", "setting": "[6]", "value": 20.5, "unit": "nmol/g"}, {"measurement": "AUC(0-t) at 24 h", "setting": "[7]", "value": 136, "unit": "µM·h"}, {"measurement": "Papp at 5 h, 500 µM", "setting": "physchem [8]", "value": 2.91, "unit": "×10⁻⁶ cm/s"}, {"measurement": "remaining at 1 h, 50 µM", "setting": "[9]", "value": 93.1, "unit": "%"}, {"measurement": "Drug metabolism", "setting": "Plasma [10]", "value": 3.3, "unit": "nmol/mL"}, {"measurement": "Tmax", "setting": "[11]", "value": 1, "unit": "h"}, {"measurement": "Drug uptake", "setting": "Kidney [12]", "value": 6.8, "unit": "nmol/g"}, {"measurement": "Ki", "setting": "[13]", "value": "> 100", "unit": "µM"}, {"measurement": "half-life", "setting": "[14]", "value": 1.16, "unit": "h"}, {"measurement": "Drug metabolism", "setting": "Liver carboxylesterase 1", "value": "Metabolite_Notdetected"}, {"measurement": "Drug uptake", "setting": "[15]", "value": "Active"}, {"measurement": "Cmax", "setting": "[16]", "value": 8.78, "unit": "µM"}, {"measurement": "Drug metabolism", "setting": "Brain [17]", "value": 5.2, "unit": "nmol/g"}, {"measurement": "AUC(0-inf)", "setting": "[18]", "value": 265, "unit": "µM·h"}, {"measurement": "Drug uptake", "setting": "[19]", "value": "Active"}, {"measurement": "Drug uptake", "setting": "[20]", "value": 1.8, "unit": "nmol/g"}, {"measurement": "Ki", "setting": "[21]", "value": "> 100", "unit": "µM"}, {"measurement": "IC50", "setting": "cells [22]", "value": 5.2, "unit": "µM"}, {"measurement": "Papp at 5 h, 500 µM", "setting": "physchem [23]", "value": 2.13, "unit": "×10⁻⁶ cm/s"}, {"measurement": "Drug metabolism", "setting": "[24]", "value": "Metabolite_Detected"}, {"measurement": "Drug metabolism", "setting": "Kidney [25]", "value": 2.6, "unit": "nmol/g"}, {"measurement": "Drug uptake", "setting": "Brain [26]", "value": 6.4, "unit": "nmol/g"}, {"measurement": "IC50", "setting": "cells [27]", "value": 7.5, "unit": "µM"}, {"measurement": "fold change (FC)", "setting": "Plasma [28]", "value": 2}, {"measurement": "Drug uptake", "setting": "Liver [29]", "value": 0.8, "unit": "nmol/g"}, {"measurement": "half-life at 100 µM", "setting": "[30]", "value": "> 48", "unit": "h"}, {"measurement": "remaining at 1 h, 50 µM", "setting": "[31]", "value": 93.6, "unit": "%"}, {"measurement": "half-life at 100 µM", "setting": "[32]", "value": "> 48", "unit": "h"}, {"measurement": "concentration at 24 h", "setting": "[33]", "value": 5.4, "unit": "µM"}, {"measurement": "IC50", "setting": "cells [34]", "value": 1.8, "unit": "µM"}, {"measurement": "CL/F", "setting": "[35]", "value": 0.14, "unit": "mL/min"}]}]}
